# Laboratory results published in ChEMBL document CHEMBL1152560, “Substituted 2-arylbenzothiazoles as kinase inhibitors: hit-to-lead optimization” (Bioorg Med Chem, 2009).
# Experiments:
# [1] = biological target: Tyrosine-protein kinase FRK (Homo sapiens) (UniProt P42685); test: Residual activity of FRK at 1 uM by microplate scintillation counting
# [2] = biological target: Cyclin-dependent kinase 7/ cyclin H (Homo sapiens) (UniProt P51946+P50613); test: Residual activity of CDK7/CyclinH/MAT1 at 1 uM by microplate scintillation counting; assay type: protein-complex assay
# [3] = biological target: T1, Tyrosine-protein kinase ZAP-70 (Homo sapiens) (UniProt P43403); test: Residual activity of ZAP70 at 10 uM by microplate scintillation counting
# T1 sequence (whole entry): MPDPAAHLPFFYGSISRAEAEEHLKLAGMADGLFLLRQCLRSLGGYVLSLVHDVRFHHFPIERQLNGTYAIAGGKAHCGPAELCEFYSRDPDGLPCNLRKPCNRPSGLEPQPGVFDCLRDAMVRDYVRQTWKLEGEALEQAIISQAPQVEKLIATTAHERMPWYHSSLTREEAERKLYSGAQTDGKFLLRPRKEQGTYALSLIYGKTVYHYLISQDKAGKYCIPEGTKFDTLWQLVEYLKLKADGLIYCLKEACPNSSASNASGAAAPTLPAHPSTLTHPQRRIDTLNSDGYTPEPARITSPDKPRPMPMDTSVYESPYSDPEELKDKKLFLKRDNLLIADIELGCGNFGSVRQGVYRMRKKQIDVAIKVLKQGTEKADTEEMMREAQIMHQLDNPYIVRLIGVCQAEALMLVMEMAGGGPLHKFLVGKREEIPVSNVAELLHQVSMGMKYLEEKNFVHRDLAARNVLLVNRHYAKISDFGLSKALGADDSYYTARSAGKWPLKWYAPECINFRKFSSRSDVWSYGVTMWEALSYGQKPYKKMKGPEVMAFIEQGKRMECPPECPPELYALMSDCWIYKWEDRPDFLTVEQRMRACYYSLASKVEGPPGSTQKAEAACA
# [4] = biological target: Cyclin-dependent kinase 4/cyclin D1 (Homo sapiens) (UniProt P11802+P24385); test: Residual activity of CDK4/Cyclin D1 at 1 uM by microplate scintillation counting; assay type: protein-complex assay
# [5] = biological target: Proto-oncogene tyrosine-protein kinase receptor Ret (Homo sapiens) (UniProt P07949); test: Residual activity of RET at 10 uM by microplate scintillation counting
# [6] = biological target: CDK3/cyclin E (Homo sapiens) (UniProt P24864+O96020+Q00526); test: Residual activity of CDK3/Cyclin E at 1 uM by microplate scintillation counting; assay type: protein-complex assay
# [7] = biological target: T2, Serine/threonine-protein kinase TBK1 (Homo sapiens) (UniProt Q9UHD2); test: Residual activity of TBK1 at 10 uM by microplate scintillation counting
# T2 sequence (whole entry): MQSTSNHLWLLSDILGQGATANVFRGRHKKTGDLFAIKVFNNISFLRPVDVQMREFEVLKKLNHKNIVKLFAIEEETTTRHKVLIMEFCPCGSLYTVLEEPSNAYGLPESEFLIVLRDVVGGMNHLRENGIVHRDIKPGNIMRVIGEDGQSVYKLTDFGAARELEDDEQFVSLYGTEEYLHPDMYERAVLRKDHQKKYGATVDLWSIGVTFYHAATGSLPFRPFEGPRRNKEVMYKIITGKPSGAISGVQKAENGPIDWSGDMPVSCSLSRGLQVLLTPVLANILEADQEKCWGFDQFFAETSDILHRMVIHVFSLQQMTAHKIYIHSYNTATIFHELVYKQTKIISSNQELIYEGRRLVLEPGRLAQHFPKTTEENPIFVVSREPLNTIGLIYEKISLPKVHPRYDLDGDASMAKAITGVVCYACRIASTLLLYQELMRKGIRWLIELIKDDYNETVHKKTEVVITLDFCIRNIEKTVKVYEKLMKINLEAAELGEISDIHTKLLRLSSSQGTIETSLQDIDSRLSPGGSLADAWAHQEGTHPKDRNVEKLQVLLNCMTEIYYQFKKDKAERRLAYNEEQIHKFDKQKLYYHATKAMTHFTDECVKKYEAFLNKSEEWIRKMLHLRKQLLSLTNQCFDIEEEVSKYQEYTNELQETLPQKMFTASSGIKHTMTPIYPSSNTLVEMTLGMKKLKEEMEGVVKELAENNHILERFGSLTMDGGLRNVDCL
# [8] = biological target: Non-receptor tyrosine-protein kinase TYK2 (Homo sapiens) (UniProt P29597); test: Residual activity of TYK2 at 10 uM by microplate scintillation counting
# [9] = biological target: 5'-AMP-activated protein kinase catalytic subunit alpha-1 (Homo sapiens) (UniProt Q13131); test: Residual activity of AMPK-alpha1 fl at 0.1 uM by microplate scintillation counting
# [10] = biological target: Myosin light chain kinase 2, skeletal/cardiac muscle (Homo sapiens) (UniProt Q9H1R3); test: Residual activity of MYLK2 at 10 uM by microplate scintillation counting
# [11] = biological target: Mitogen-activated protein kinase 1 (Homo sapiens) (UniProt P28482); test: Residual activity of ERK2 at 1 uM by microplate scintillation counting
# [12] = biological target: Interleukin-1 receptor-associated kinase 1 (Homo sapiens) (UniProt P51617); test: Residual activity of IRAKI at 0.1 uM by microplate scintillation counting
# [13] = biological target: Calcium/calmodulin-dependent protein kinase type 1D (Homo sapiens) (UniProt Q8IU85); test: Residual activity of CAMK1D at 10 uM by microplate scintillation counting
# [14] = biological target: Receptor-interacting serine/threonine-protein kinase 2 (Homo sapiens) (UniProt O43353); test: Residual activity of RIPK2 at 10 uM by microplate scintillation counting
# [15] = biological target: Tyrosine-protein kinase Blk (Homo sapiens) (UniProt P51451); test: Residual activity of BLK at 0.1 uM by microplate scintillation counting
# [16] = biological target: Tyrosine-protein kinase JAK2 (Homo sapiens) (UniProt O60674); test: Residual activity of JAK2 at 0.1 uM by microplate scintillation counting
# [17] = biological target: T3, TGF-beta receptor type-1 (Homo sapiens) (UniProt P36897); test: Residual activity of TGFB-R1 at 10 uM by microplate scintillation counting
# T3 sequence (whole entry): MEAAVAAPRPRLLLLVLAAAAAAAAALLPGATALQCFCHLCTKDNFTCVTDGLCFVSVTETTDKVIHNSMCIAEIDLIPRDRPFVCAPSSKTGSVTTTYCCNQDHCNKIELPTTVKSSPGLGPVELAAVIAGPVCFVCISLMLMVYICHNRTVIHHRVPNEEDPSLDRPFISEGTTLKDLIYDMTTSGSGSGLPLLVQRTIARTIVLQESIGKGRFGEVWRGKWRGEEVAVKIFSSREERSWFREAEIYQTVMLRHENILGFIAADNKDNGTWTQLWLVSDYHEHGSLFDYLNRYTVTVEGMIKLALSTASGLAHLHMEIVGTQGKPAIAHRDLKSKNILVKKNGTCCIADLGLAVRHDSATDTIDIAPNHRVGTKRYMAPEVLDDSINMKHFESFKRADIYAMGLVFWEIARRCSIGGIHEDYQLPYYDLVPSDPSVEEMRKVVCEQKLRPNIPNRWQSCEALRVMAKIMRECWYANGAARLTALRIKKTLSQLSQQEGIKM
# Chain of Mitogen-activated protein kinase 1 (Homo sapiens) (P28482 whole entry): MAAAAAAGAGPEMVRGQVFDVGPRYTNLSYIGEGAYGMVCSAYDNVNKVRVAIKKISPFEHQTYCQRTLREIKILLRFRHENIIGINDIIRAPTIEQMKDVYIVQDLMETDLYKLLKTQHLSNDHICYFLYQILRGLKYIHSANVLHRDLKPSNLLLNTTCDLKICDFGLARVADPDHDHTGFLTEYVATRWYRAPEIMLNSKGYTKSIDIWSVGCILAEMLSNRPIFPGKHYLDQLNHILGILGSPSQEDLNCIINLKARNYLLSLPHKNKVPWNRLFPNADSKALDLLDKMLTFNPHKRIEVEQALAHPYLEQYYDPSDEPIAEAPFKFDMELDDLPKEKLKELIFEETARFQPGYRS
# Chain of Receptor-interacting serine/threonine-protein kinase 2 (Homo sapiens) (O43353 whole entry): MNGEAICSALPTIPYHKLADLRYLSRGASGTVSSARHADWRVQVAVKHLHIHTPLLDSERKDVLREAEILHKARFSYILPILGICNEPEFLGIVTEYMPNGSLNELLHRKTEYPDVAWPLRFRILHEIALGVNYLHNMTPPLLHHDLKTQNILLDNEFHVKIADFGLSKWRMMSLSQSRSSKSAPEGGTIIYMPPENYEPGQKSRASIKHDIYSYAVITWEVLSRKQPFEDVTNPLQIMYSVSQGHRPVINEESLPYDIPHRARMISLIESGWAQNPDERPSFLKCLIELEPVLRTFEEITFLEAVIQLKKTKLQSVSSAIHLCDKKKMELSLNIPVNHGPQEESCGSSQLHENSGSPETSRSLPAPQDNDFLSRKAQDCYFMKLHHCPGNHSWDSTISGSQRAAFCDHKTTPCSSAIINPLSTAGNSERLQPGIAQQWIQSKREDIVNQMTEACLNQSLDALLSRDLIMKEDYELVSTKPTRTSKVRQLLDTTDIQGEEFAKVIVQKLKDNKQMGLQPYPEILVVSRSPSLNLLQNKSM
# Chain of Tyrosine-protein kinase JAK2 (Homo sapiens) (O60674 whole entry): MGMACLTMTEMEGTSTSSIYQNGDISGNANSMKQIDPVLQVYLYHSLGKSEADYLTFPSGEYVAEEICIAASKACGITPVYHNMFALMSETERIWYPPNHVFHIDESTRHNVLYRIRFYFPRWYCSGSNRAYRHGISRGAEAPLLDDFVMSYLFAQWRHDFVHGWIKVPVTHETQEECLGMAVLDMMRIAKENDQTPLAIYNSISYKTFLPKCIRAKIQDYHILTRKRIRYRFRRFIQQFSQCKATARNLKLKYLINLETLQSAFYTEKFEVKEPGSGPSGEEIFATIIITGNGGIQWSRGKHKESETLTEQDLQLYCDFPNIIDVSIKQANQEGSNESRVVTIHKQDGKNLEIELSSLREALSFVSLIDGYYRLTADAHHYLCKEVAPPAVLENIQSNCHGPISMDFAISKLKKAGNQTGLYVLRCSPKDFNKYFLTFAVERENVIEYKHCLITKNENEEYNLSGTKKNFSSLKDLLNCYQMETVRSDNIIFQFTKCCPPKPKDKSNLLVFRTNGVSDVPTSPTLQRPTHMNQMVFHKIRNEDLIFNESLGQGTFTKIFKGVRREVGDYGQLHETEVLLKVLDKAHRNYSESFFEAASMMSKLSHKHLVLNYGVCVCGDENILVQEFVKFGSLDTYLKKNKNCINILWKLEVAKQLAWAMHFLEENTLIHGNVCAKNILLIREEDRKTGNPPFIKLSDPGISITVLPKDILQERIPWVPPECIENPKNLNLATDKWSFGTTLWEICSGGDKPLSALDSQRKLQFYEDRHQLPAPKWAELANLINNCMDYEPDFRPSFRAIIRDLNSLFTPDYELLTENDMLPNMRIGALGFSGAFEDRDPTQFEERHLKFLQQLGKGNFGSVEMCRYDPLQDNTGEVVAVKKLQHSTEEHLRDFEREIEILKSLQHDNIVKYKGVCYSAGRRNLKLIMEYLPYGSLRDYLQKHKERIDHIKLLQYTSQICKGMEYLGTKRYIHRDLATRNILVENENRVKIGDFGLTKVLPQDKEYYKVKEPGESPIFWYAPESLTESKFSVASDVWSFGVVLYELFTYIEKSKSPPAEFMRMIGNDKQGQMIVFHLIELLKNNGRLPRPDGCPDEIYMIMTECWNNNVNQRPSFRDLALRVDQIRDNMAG
# Chain of Proto-oncogene tyrosine-protein kinase receptor Ret (Homo sapiens) (P07949 whole entry): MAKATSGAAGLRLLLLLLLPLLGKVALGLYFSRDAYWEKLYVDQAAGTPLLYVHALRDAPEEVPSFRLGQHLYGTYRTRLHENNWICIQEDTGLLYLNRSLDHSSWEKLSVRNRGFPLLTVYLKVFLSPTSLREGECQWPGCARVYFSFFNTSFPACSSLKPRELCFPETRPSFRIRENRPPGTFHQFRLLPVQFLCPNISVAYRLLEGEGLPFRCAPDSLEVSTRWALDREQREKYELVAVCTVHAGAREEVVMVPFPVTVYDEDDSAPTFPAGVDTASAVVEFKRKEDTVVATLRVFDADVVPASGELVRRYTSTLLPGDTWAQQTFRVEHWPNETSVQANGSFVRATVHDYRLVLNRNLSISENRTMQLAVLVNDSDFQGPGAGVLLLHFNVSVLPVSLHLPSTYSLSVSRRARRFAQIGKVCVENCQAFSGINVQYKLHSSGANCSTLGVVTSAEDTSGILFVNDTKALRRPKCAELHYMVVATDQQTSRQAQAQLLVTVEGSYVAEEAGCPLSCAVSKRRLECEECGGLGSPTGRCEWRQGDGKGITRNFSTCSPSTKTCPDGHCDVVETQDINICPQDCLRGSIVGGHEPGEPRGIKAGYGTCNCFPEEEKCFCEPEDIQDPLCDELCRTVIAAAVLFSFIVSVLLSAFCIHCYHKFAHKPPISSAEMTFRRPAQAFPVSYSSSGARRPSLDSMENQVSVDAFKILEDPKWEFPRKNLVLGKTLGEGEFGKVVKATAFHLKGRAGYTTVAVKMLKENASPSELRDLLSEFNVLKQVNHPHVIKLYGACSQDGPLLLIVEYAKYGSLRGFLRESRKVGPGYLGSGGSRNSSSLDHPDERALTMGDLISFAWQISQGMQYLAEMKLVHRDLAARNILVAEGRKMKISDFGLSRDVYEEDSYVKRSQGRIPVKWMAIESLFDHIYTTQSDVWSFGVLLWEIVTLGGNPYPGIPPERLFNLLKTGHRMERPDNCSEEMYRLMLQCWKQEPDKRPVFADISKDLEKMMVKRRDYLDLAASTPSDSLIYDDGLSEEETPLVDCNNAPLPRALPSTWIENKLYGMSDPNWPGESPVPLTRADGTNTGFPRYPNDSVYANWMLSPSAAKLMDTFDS
# Chain of Myosin light chain kinase 2, skeletal/cardiac muscle (Homo sapiens) (Q9H1R3 whole entry): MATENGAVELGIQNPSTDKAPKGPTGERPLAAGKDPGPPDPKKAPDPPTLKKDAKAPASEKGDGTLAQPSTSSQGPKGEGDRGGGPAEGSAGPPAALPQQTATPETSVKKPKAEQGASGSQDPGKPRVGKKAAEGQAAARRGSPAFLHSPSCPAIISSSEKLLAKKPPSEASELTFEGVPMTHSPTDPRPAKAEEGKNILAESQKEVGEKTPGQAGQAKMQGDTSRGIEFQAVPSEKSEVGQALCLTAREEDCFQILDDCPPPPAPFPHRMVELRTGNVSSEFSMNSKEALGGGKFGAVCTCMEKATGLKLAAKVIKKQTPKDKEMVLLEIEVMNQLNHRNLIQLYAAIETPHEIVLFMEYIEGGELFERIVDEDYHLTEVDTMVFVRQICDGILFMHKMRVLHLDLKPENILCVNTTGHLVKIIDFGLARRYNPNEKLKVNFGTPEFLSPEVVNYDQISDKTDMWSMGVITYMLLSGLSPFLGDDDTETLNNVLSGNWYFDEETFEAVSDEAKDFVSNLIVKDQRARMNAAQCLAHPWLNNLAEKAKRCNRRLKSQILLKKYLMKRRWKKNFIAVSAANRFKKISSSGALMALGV
# Chain of CDK3/cyclin E (Homo sapiens) (O96020 whole entry, looked up): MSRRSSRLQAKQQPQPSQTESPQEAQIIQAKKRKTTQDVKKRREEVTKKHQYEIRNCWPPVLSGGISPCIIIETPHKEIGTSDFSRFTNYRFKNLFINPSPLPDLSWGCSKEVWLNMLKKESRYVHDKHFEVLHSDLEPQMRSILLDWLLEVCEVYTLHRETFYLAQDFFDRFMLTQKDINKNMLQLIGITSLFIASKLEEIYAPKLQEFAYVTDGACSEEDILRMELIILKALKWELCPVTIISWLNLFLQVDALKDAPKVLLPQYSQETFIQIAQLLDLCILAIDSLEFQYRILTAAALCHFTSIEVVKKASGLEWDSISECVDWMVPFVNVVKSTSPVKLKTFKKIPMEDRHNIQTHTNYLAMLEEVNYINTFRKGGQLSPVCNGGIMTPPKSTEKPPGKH
# Chain of CDK3/cyclin E (Homo sapiens) (P24864 whole entry, looked up): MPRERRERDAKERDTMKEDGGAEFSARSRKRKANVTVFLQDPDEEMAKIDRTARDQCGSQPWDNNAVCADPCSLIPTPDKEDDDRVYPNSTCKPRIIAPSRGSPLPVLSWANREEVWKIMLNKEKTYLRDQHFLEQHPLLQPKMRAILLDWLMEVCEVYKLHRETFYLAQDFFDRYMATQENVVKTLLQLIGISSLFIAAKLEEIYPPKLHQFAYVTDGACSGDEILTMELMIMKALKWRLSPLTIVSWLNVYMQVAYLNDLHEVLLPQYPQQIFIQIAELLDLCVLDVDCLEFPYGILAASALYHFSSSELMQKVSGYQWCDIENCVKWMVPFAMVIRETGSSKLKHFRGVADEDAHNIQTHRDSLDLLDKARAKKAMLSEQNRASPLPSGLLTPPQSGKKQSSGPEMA
# Chain of CDK3/cyclin E (Homo sapiens) (Q00526 whole entry, looked up): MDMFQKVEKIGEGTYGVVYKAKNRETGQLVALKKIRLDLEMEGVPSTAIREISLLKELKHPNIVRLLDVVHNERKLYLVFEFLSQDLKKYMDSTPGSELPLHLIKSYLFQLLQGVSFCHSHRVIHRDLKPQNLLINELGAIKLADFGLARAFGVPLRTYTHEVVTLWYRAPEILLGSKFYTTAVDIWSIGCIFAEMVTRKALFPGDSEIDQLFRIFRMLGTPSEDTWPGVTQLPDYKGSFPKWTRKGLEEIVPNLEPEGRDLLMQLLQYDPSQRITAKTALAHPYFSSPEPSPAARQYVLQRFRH
residual activity [1] [%],residual activity [2] [%],residual activity [3] [%],residual activity [4] [%],residual activity [5] [%],residual activity [6] [%],residual activity [7] [%],residual activity [8] [%],residual activity [9] [%],residual activity [10] [%],residual activity [11] [%],residual activity [12] [%],residual activity [13] [%],residual activity [14] [%],residual activity [15] [%],residual activity [16] [%],residual activity [17] [%],Structure (SMILES)
95,77,166,98,21,89,143,72,101,82,82,61,100,4,97,92,100,COc1cc2c(Oc3ccc(-c4nc5ccccc5s4)cc3)ncnc2cc1OCCCN1CCCC1
84,94,341,100,13,85,171,72,94,115,91,77,82,2,90,90,94,COc1cc2c(Oc3ccc(-c4nc5ccccc5s4)cc3)ncnc2cc1OCCCN1CCN(C)CC1
90,87,230,94,5,79,141,55,86,117,98,84,64,1,89,102,94,COc1cc2c(Oc3ccc(-c4nc5ccccc5s4)cc3F)ncnc2cc1OCCCN1CCN(C)CC1
